Source: patent US8097650B2, “Method of treating a condition associated with phosphorylation of TASK-1” (The Trustees of Columbia University In The City of New York, priority 2005, dated 2012)
pEC50: −log10 of the molar value.

How the values were obtained:
TASK-1 = biological target: T1, TASK-1 (Mus musculus, UniProt O35111); test: C-PAF-sensitive steady-state current in murine ventricular myocytes (voltage clamp); format: cell-based; conditions: for C-PAF-sensitive current density: held at −70 mV
T1 construct: endogenous in cells; host or cells: adult mouse ventricular myocytes (C57/B16 background; WT or PAFR KO)
Description: Adult mice, 2-3 months old, were anesthetized with ketamine/xylazine and their hearts were removed according to protocols approved by the Columbia University-IACUC. Experiments were performed on single rod-shaped, quiescent ventricular myocytes dissociated using a standard retrograde collagenase perfusion (Kuznetsov V et al. (1995) Circ Res 76: 40-52) from hearts of mice that were either wild-type (WT), or PAFR knockouts (KO). Both WT and KO mice were bred on a C57/B16 background. The derivation of the KO mice has been described previously (Hoffman, B F et al.(1996) J Cardiovasc Electrophysiol 7:120-133).
Prior to electrophysiological measurements, cells were placed into the perfusion chamber and superfused at room temperature with Tyrode's buffer (in mM: NaCl, 140; KCl, 5.4; CaCl2 1; MgCl2, Hepes, 5; Glucose, 10; pH 7.4). The whole-cell patch clamp technique was used with pipettes having resistances of 1.5-3 MΩ (intracellular solution, in mM: aspartic acid, 130; KOH, 146; NaCl, 10; CaCl2, 2; EGTA, 5; Hepes, 10; MgATP, 2; pH 7.2). Solutions of C-PAF, the PAFR antagonist, CV-6209 (Biomol) and the PKC inhibitor, bisindolylmaleimide I (BIM I; Calbiochem) were prepared in water and diluted in Tyrode's before use. […] A custom-made fast perfusion device was used to exchange the solution around the cell within 1 s (DiFrancesco et al. (1986) J Physiol 377: 61-88).
Current and voltage protocols were generated using Clampex 7.0 software applied by means of an Axopatch 200B amplifier and a Digidata 1200 interface (Axon Instruments). During voltage clamp, steady state current traces were acquired at 500 Hz and final filtered at 10 Hz. During current clamp, membrane voltage was acquired at 5 KHz and filtered at 1 KHz. Ramp clamps were conducted by imposing a voltage ramp (14 mV/s) at a 500 Hz acquisition rate with 1 kHz filtering. Data were analyzed using pCLAMP 8.0 (Axon) and Origin 6.0 (Microcal) and are presented as mean±SEM. Steady-state current was determined by computer calculation of average current over a time period of at least 5 s. In all experiments, the n value indicates the number of myocytes studied, and represents pooled data from at least 2 (voltage clamp) or 3 (current clamp) animals. Student's t-test, one-way ANOVA and χ^2 tests were used; a value of p<0.05 was considered statistically significant. Records have been corrected for the junction potential, which was measured to be 9.8 mV.

mTRAAK = biological target: T2, mTRAAK (Mus musculus, UniProt O88454); test: mTRAAK current in HEK cells (ramp clamp); format: cell-based; conditions: read-out: EC50 for activation of TRAAK current
T2 construct: expressed in transfected cells; host or cells: HEK cells
T2 sequence (O88454 1-398): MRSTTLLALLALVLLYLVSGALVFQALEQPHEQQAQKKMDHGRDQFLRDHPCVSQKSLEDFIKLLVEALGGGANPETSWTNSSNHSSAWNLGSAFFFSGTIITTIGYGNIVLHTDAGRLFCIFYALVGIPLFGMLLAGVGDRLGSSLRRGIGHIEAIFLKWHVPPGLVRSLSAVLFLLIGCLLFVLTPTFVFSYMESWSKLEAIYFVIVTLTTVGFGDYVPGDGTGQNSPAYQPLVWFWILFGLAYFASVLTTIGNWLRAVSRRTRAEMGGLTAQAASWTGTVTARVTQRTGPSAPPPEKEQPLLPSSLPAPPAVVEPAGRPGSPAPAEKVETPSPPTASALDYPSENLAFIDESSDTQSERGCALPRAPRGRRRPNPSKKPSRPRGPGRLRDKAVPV
Description: FIG. 21. CHO cells (hTREK-1, hTASK-1) or HEK cells (mTRAAK) were co-transfected with plasmids encoding one of the two pore domain channels and GFP using the GeneJammer reagent. After 48-60 h, the expressed current was measured using a ramp protocol while the cells were perfused with regular Tyrode's solution containing varying concentrations of ONO-RS-082 (range of concentration from 10 nM to 500 μM as noted in FIG. 21) until a steady state was reached. Each cell was exposed to only one concentration of drug. Panel A: TREK-1 current was determined using a ramp clamp, and the percent increase induced by ONO-RS-082 was measured at the most positive imposed voltage (n≧5). The EC50 for activation was around 3 μM and the basal and ONO-activated current densities are noted. Panel B: TASK-1 current was determined using a ramp clamp in Tyrode's solution at pH=8 and the percent increase induced by ONO-RS-082 was measured at the most positive imposed voltage (n≧4). The EC50 was around 8 μM and the basal and ONO-activated current densities are noted. Panel C: TRAAK current was determined using a ramp clamp, and the percent increase induced by ONO-RS-082 was measured at the most positive imposed voltage (n≧4). The EC50 was around 0.9 μM and the basal and ONO-activated current densities are noted.

T1 sequence (O35111 whole entry): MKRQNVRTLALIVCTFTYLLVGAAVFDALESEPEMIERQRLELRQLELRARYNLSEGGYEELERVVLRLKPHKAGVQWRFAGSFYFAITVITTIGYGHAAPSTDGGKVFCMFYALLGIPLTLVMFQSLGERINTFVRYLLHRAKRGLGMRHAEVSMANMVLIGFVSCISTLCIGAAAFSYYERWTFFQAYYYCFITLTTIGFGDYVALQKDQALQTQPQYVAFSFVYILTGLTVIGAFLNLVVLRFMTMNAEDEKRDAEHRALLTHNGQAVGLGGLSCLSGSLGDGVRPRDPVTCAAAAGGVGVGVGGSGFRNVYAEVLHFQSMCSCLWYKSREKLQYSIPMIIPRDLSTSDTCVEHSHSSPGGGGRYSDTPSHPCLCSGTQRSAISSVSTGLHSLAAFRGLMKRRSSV

Row | pEC50 (mTRAAK) | Structure (SMILES) | decrease in conductance (TASK-1; +10 mV step, cells held at −10 mV) [%] | reversal potential of C-PAF-sensitive current (TASK-1; extracellular K+ 50 mM, Cs+ 5 mM, TEA 1 mM) [mV] | C-PAF-sensitive current density (TASK-1; control cells) [pA/pF] | C-PAF-sensitive current density (TASK-1; in the presence of Cs+ 5 mM) [pA/pF] | time to peak of C-PAF-sensitive current (TASK-1; −70 mV) [s]
1 |  | CCCCCCCCCCCCCCCCOC[C@H](COP(=O)([O-])OCC[N+](C)(C)C)OC(=O)NC [C-PAF, carbamyl-platelet-activating factor] | 17.5±3.9 | −20.4±3 | 0.047±0.01 | 0.047±0.03 | 74 ± 13
2 | ~6.05 | CCCCCc1ccc(C=CC(=O)Nc2cc(Cl)ccc2C(=O)O)cc1 [ONO-RS-082] |  |  |  |  | 
